Reference: US11401555B2, “Genetic polymorphisms associated with stroke, methods of detection and uses thereof” (CELERA CORPORATION, priority 2008, dated 2022)

Experiment: Stroke statin response (SSR) in the PROSPER pravastatin trial: pravastatin-treated versus placebo-treated, by SNP genotype
Format: in vivo, human
From the text: (hCV26505812) for association with SSR in CARE (Table 37) and PROSPER (Table 38), including both unadjusted and adjusted analyses (adjusted for factors such as age, gender, smoking status, hypertension, diabetes, BMI, and LDL and HDL levels). Table 37 provides results in CARE, and Table 38 provides results in PROSPER (whether each analysis is unadjusted or adjusted is indicated in the “adjust” column in Table 37, or by “unadj” and “adj” column labels in Tables 38). With respect to Tables 22-32 and 37-38, the columns labeled “Genotype” (in Tables 22-28 and 37), “Geno_Placebo” (in Tables 29-30 and 38), and “Geno_Resp” (in Tables 31-32 and 38) indicate the genotype which the given stroke risk or SSR results correspond to. […] In Tables 29-32 and 38, the columns labeled “LOWER_PLACEBO” and “UPPER_PLACEBO” (Tables 29-30 and 38), and “LOWER_RESP” and “UPPER_RESP” (Tables 31-32 and 38), refer to the lower and upper 95% confidence intervals for the hazard ratios. See Example Six below for further information relating to Tables 22-32 and 37-38. […] As used herein, the term “benefit” (with respect to a preventive or therapeutic drug treatment) is defined as achieving a reduced risk for a disease that the drug is intended to treat or prevent (e.g., stroke) by administrating the drug treatment, compared with the risk for the disease in the absence of receiving the drug treatment (or receiving a placebo in lieu of the drug treatment) for the same genotype. The term “benefit” may be used herein interchangeably with terms such as “respond positively” or “positively respond”. For stroke risk and statin response associations based on samples from the CARE and PROSPER trials described herein, stroke risk is assessed by comparing the risk of stroke for a given genotype with the risk of stroke for a reference genotype either in the placebo arm of the trial or in the whole study population of the trial, and statin response is assessed by comparing the risk of stroke in the pravastatin arm of the trial with the risk of stroke in the placebo arm of the trial for the same genotype. […] Example Five above describes the analysis of these 61 SNPs plus 17 additional SNPs in the German West Study. […] In PROSPER, SNPs were analyzed for association with stroke risk or SSR, in the whole study cohort (strata: “ALL”), or in the subgroup with a history of CVD (strata: “hist”) or without a CVD history (strata: “no hist”). […] Also in the CARE and PROSPER trials, the chromosome 9p21 SNP […] (hCV26505812) was analyzed further for association with SSR, including unadjusted and adjusted analysis. Adjusted analysis in CARE (Table 37) was adjusted for age, gender, smoking status, hypertension, diabetes, body mass index (BMI), and LDL and HDL levels, and adjusted analysis in PROSPER (Table 38) was adjusted for country, gender, age, LDL, HDL, smoking status (current vs. past or never), history of hypertension, and diabetes. Table 37 provides results in CARE, and Table 38 provides results in PROSPER (whether each analysis is unadjusted or adjusted is indicated in the “adjust” column in Table 37, or by “unadj” and “adj” column labels in Tables 38). All the p-values (including Pint values) provided in Tables 37-38 are two-sided p-values.

[1] = hCV2169762 rs1804689 HPS1, GENO_RESP GG, MODE GEN, STRATA no hist
[2] = hCV2169762 rs1804689 HPS1, GENO_RESP GT, MODE GEN, STRATA hist
[3] = hCV2169762 rs1804689 HPS1, GENO_RESP GT, MODE GEN, STRATA no hist
[4] = hCV2169762 rs1804689 HPS1, GENO_RESP TT, MODE GEN, STRATA no hist
[5] = hCV2442143 rs12544854 ASAH1, GENO_RESP CC + CT, MODE REC, STRATA no hist
[6] = hCV2442143 rs12544854 ASAH1, GENO_RESP TT + CT, MODE DOM, STRATA hist
[7] = hCV26505812 rs10757274 C9p21, GENO_RESP AA, MODE GEN, STRATA ALL
[8] = hCV26505812 rs10757274 C9p21, GENO_RESP AA, MODE GEN, STRATA no hist
[9] = hCV26505812 rs10757274 C9p21, GENO_RESP AG, MODE GEN, STRATA ALL
[10] = hCV26505812 rs10757274 C9p21, GENO_RESP AG, MODE GEN, STRATA no hist
[11] = hCV26505812 rs10757274 C9p21, GENO_RESP GG + AG, MODE DOM, STRATA ALL
[12] = hCV26505812 rs10757274 C9p21, GENO_RESP GG + AG, MODE DOM, STRATA no hist
[13] = hCV26505812 rs10757274 C9p21, GENO_RESP GG, MODE GEN, STRATA ALL
[14] = hCV26505812 rs10757274 C9p21, GENO_RESP GG, MODE GEN, STRATA no hist
[15] = hCV27511436 rs3750145 FZD1, GENO_RESP CC + CT, MODE DOM, STRATA no hist
[16] = hCV27511436 rs3750145 FZD1, GENO_RESP CC, MODE GEN, STRATA no hist
[17] = hCV27511436 rs3750145 FZD1, GENO_RESP CT, MODE GEN, STRATA no hist
[18] = hCV27511436 rs3750145 FZD1, GENO_RESP TT, MODE GEN, STRATA no hist
[19] = hCV27830265 rs12762303 ALOX5, GENO_RESP GG + AG, MODE DOM, STRATA no hist
[20] = hCV29539757 rs10110659 KCNQ3, GENO_RESP AA, MODE GEN, STRATA hist
[21] = hCV29539757 rs10110659 KCNQ3, GENO_RESP AC, MODE GEN, STRATA hist
[22] = hCV29539757 rs10110659 KCNQ3, GENO_RESP CC, MODE GEN, STRATA hist

CC[C@H](C)C(=O)O[C@H]1C[C@H](O)C=C2C=C[C@H](C)[C@H](CC[C@@H](O)C[C@@H](O)CC(=O)O)[C@H]21 [pravastatin]
HR_RESP (hazard ratio, pravastatin-treated versus placebo-treated) (hCV2169762 rs1804689 HPS1, GENO_RESP GG, MODE GEN, STRATA hist): 1.104
EVENTS_RESP [1]: 30
HR_RESP (hazard ratio, pravastatin-treated versus placebo-treated) [1]: 0.659
EVENTS_RESP [2]: 47
HR_RESP (hazard ratio, pravastatin-treated versus placebo-treated) [2]: 0.9425
EVENTS_RESP [3]: 47
HR_RESP (hazard ratio, pravastatin-treated versus placebo-treated) [3]: 1.268
EVENTS_RESP (hCV2169762 rs1804689 HPS1, GENO_RESP TT + GT, MODE DOM, STRATA no hist): 57
HR_RESP (hazard ratio, pravastatin-treated versus placebo-treated) (hCV2169762 rs1804689 HPS1, GENO_RESP TT, MODE GEN, STRATA hist): 0.3365
EVENTS_RESP [4]: 10
HR_RESP (hazard ratio, pravastatin-treated versus placebo-treated) [4]: 1.275
EVENTS_RESP [5]: 72
HR_RESP (hazard ratio, pravastatin-treated versus placebo-treated) [5]: 1.087
EVENTS_RESP [6]: 88
HR_RESP (hazard ratio, pravastatin-treated versus placebo-treated) [6]: 1.043
EVENTS_RESP [7]: 56
HR_RESP (hazard ratio, pravastatin-treated versus placebo-treated) [7]: 1.33
EVENTS_RESP [8]: 28
HR_RESP (hazard ratio, pravastatin-treated versus placebo-treated) [8]: 1.57
EVENTS_RESP [9]: 94
HR_RESP (hazard ratio, pravastatin-treated versus placebo-treated) [9]: 0.7769
EVENTS_RESP [10]: 35
HR_RESP (hazard ratio, pravastatin-treated versus placebo-treated) [10]: 0.6977
EVENTS_RESP [11]: 145
HR_RESP (hazard ratio, pravastatin-treated versus placebo-treated) [11]: 0.8638
EVENTS_RESP [12]: 59
HR_RESP (hazard ratio, pravastatin-treated versus placebo-treated) [12]: 0.8132
EVENTS_RESP [13]: 51
HR_RESP (hazard ratio, pravastatin-treated versus placebo-treated) [13]: 1.082
EVENTS_RESP [14]: 24
HR_RESP (hazard ratio, pravastatin-treated versus placebo-treated) [14]: 1.068
EVENTS_RESP [15]: 27
HR_RESP (hazard ratio, pravastatin-treated versus placebo-treated) [15]: 1.388
EVENTS_RESP [16]: 1
HR_RESP (hazard ratio, pravastatin-treated versus placebo-treated) [16]: 0.3492
EVENTS_RESP [17]: 26
HR_RESP (hazard ratio, pravastatin-treated versus placebo-treated) [17]: 1.575
EVENTS_RESP [18]: 60
HR_RESP (hazard ratio, pravastatin-treated versus placebo-treated) [18]: 0.8524
EVENTS_RESP [19]: 25
HR_RESP (hazard ratio, pravastatin-treated versus placebo-treated) [19]: 1.479
EVENTS_RESP [20]: 7
HR_RESP (hazard ratio, pravastatin-treated versus placebo-treated) [20]: 0.4115
EVENTS_RESP [21]: 44
HR_RESP (hazard ratio, pravastatin-treated versus placebo-treated) [21]: 0.9946
EVENTS_RESP (hCV29539757 rs10110659 KCNQ3, GENO_RESP CC + AC, MODE REC, STRATA hist): 106
EVENTS_RESP [22]: 62
HR_RESP (hazard ratio, pravastatin-treated versus placebo-treated) [22]: 1.016
